Test results: ChEMBL document CHEMBL4373741, “Direct and straightforward access to substituted alkyl selenols as novel carbonic anhydrase inhibitors” (Eur J Med Chem, 2020)

Key:
Carbonic anhydrase 9 = Carbonic anhydrase 9 (Homo sapiens, UniProt Q16790); assay: Inhibition of recombinant human CA9 incubated for 15 mins by phenol red dye based stopped flow CO2 hydration assay
Carbonic anhydrase 7 = Carbonic anhydrase 7 (Homo sapiens, UniProt P43166); assay: Inhibition of recombinant human CA7 incubated for 15 mins by phenol red dye based stopped flow CO2 hydration assay
Carbonic anhydrase 7, sequence (P43166 whole entry): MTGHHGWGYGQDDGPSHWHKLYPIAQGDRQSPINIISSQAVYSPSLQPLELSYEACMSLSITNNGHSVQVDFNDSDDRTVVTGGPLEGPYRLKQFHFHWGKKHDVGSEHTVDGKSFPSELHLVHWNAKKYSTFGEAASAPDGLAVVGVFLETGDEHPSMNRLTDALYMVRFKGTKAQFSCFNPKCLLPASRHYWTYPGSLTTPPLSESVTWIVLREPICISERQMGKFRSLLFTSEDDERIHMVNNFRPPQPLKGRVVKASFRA

Structure (SMILES)	Ki (Carbonic anhydrase 9)	Ki (Carbonic anhydrase 7)
SC(C[SeH])COCc1ccccc1 (stereo not given)	6.6 µM	–
COc1ccc(COCC(O)C[SeH])cc1 (stereo not given)	> 100 µM	> 100 µM
O[C@H](CCl)C[SeH]	> 100 µM	> 100 µM
Cc1ccc(S(=O)(=O)N[C@H](C[SeH])C(C)C)cc1	2.1 µM	–
CC[C@H](C)[C@@H](C[SeH])NS(=O)(=O)c1ccc(C)cc1	> 100 µM	> 100 µM
C=CCOCC(O)C[SeH] (stereo not given)	> 100 µM	–
C=CCOCC(S)C[SeH] (stereo not given)	38.6 µM	> 100 µM
O[C@@H](CCl)C[SeH]	60 µM	> 100 µM
OC(C[SeH])COCc1ccccc1 (stereo not given)	58.7 µM	–
CC(C)[C@@H](C[SeH])NC(=O)OC(C)(C)C	> 100 µM	–
